Data: patent US7135467B2, “HIV integrase inhibitors” (priority 2003, dated 2006)

Molecular target: T1, HIV-integrase (recombinant integrase) (Human immunodeficiency virus type 1 group M subtype B, UniProt P12497)
T1 construct: Recombinant integrase (0.26 ng) was incubated with the beads
Experiment: HIV-Integrase Inhibition Activity (SPA bead strand-transfer assay)
Type: biochemical
Settings: recombinant integrase on biotin labeled substrate DNA/SPA beads, P33 labeled target DNA; read-out: Activity (IC50 against HIV-integrase)
Method: To evaluate in-vitro activity against HIV-integrase, 5 pmole of biotin labeled substrate DNA was bound to 100 μg of Streptavidin coated PVT SPA beads (Amersham Pharmacia Biotech). Recombinant integrase (0.26 ng) was incubated with the beads for 90 min at 37° C. Unbound enzyme was removed by washing the complex followed by addition of inhibitors and 0.1 fmol of P33 labeled target DNA. The reaction was stopped by adding EDTA to a final concentration of 10 mM. Samples were counted in TopCountNXT (Packard) and the CPM was used as a measure of integration. The reaction condition was as described in A. Engelman and R. Craigie, J. Virol. 69, 5908–5911 (1995). The sequences of substrate and target DNA were described in Nucleic Acid Research 22, 1121–1122 (1994). Activity equal to A refers to a compound having IC50=0.003 to 0.10 μM while B and C denote compounds the following IC50=0.1 to 1.0 μM and IC50≧1.0 μM respectively.

| SMILES | IC50 [nM] |
| --- | --- |
| Cn1c(N2CCCCS2(=O)=O)nc(C(=O)NCc2ccccc2)c(O)c1=O [Compound 35, 1,6-dihydro-5-hydroxy-1-methyl-6-oxo-N-(phenylmethyl)-2-(tetrahydro-1,1-dioxido-2H-1,2-thiazin-2-yl)-4-pyrimidinecarboxamide] | 100 to 1000 |
| Cc1cccc(CNC(=O)c2nc(N3CCCCS3(=O)=O)n(C)c(=O)c2O)c1 [Compound 9, 1,6-dihydro-5-hydroxy-1-methyl-N-[(3-methylphenyl)methyl]-6-oxo-2-(tetrahydro-1,1-dioxido-2H-1,2-thiazin-2-yl)-4-pyrimidinecarboxamide] | 3 to 100 |
| COc1cccc(CNC(=O)c2nc(N3CCCCS3(=O)=O)n(C)c(=O)c2O)c1 [Compound 11, 1,6-dihydro-5-hydroxy-N-[(3-methoxyphenyl)methyl]-1-methyl-6-oxo-2-(tetrahydro-1,1-dioxido-2H-1,2-thiazin-2-yl)-4-pyrimidinecarboxamide] | 100 to 1000 |
| Cc1cc(CNC(=O)c2nc(N3CCCCC3CCO)n(C)c(=O)c2O)ccc1F (centres unmarked) [Compound 99, N-[(4-fluoro-3-methylphenyl)methyl]-1,6-dihydro-5-hydroxy-2-[2-(2-hydroxyethyl)-1-piperidinyl]-1-methyl-6-oxo-4-pyrimidinecarboxamide] | 3 to 100 |
| Cc1ccc(CNC(=O)c2nc(N3CCCCS3(=O)=O)n(C)c(=O)c2O)cc1F [Compound 14, N-[(3-fluoro-4-methylphenyl)methyl]-1,6-dihydro-5-hydroxy-1-methyl-6-oxo-2-(tetrahydro-1,1-dioxido-2H-1,2-thiazin-2-yl)-4-pyrimidinecarboxamide] | 3 to 100 |
| Cn1c(N2CCCCS2(=O)=O)nc(C(=O)NCc2ccccc2F)c(O)c1=O [Compound 28, N-[(2-fluorophenyl)methyl]-1,6-dihydro-5-hydroxy-1-methyl-6-oxo-2-(tetrahydro-1,1-dioxido-2H-1,2-thiazin-2-yl)-4-pyrimidinecarboxamide] | 100 to 1000 |
| Cn1c(N2CCCCS2(=O)=O)nc(C(=O)NCCc2ccccc2)c(O)c1=O [Compound 31, 1,6-dihydro-5-hydroxy-1-methyl-6-oxo-N-(2-phenylethyl)-2-(tetrahydro-1,1-dioxido-2H-1,2-thiazin-2-yl)-4-pyrimidinecarboxamide] | ≥ 1000 |
| COc1cc(CNC(=O)c2nc(N3CCCCS3(=O)=O)n(C)c(=O)c2O)cc(OC)c1OC [Compound 41, 1,6-dihydro-5-hydroxy-1-methyl-6-oxo-2-(tetrahydro-1,1-dioxido-2H-1,2-thiazin-2-yl)-N-[(3,4,5-trimethoxyphenyl)methyl]-4-pyrimidinecarboxamide] | ≥ 1000 |
| Cn1c(N2CCNCC2)nc(C(=O)NCc2ccc(F)cc2)c(O)c1=O [Compound 69, N-[(4-fluorophenyl)methyl]-1,6-dihydro-5-hydroxy-1-methyl-6-oxo-2-(1-piperazinyl)-4-pyrimidinecarboxamide] | 100 to 1000 |
| Cn1c(N2CCCCS2(=O)=O)nc(C(=O)NCc2ccccc2C(F)(F)F)c(O)c1=O [Compound 46, 1,6-dihydro-5-hydroxy-1-methyl-6-oxo-2-(tetrahydro-1,1-dioxido-2H-1,2-thiazin-2-yl)-N-[[2-(trifluoromethyl)phenyl]methyl]-4-pyrimidinecarboxamide] | 100 to 1000 |
| Cn1c(N2CCCCS2(=O)=O)nc(C(=O)NCCc2cccc(Cl)c2)c(O)c1=O [Compound 30, N-[2-(3-chlorophenyl)ethyl]-1,6-dihydro-5-hydroxy-1-methyl-6-oxo-2-(tetrahydro-1,1-dioxido-2H-1,2-thiazin-2-yl)-4-pyrimidinecarboxamide] | 100 to 1000 |
| Cn1c(N2CCCCS2(=O)=O)nc(C(=O)NCc2ccco2)c(O)c1=O [Compound 33, N-(2-furanylmethyl)-1,6-dihydro-5-hydroxy-1-methyl-6-oxo-2-(tetrahydro-1,1-dioxido-2H-1,2-thiazin-2-yl)-4-pyrimidinecarboxamide] | 100 to 1000 |
| Cc1ccc(CNC(=O)c2nc(N3CCCCS3(=O)=O)n(C)c(=O)c2O)o1 [Compound 23, 1,6-dihydro-5-hydroxy-1-methyl-N-[(5-methyl-2-furanyl)methyl]-6-oxo-2-(tetrahydro-1,1-dioxido-2H-1,2-thiazin-2-yl)-4-pyrimidinecarboxamide] | 3 to 100 |
| Cn1c(N2CCCCS2(=O)=O)nc(C(=O)NCCCc2ccc(Cl)c(Cl)c2)c(O)c1=O [Compound 7, N-[3-(3,4-dichlorophenyl)propyl]-1,6-dihydro-5-hydroxy-1-methyl-6-oxo-2-(tetrahydro-1,1-dioxido-2H-1,2-thiazin-2-yl)-4-pyrimidinecarboxamide] | ≥ 1000 |
| COc1ccccc1CCNC(=O)c1nc(N2CCCCS2(=O)=O)n(C)c(=O)c1O [Compound 38, 1,6-dihydro-5-hydroxy-N-[2-(2-methoxyphenyl)ethyl]-1-methyl-6-oxo-2-(tetrahydro-1,1-dioxido-2H-1,2-thiazin-2-yl)-4-pyrimidinecarboxamide] | ≥ 1000 |
| Cn1c(N2CCCCS2(=O)=O)nc(C(=O)NCc2ccc(F)cc2)c(O)c1=O [Compound 1, N-[(4-fluorophenyl)methyl]-1,6-dihydro-5-hydroxy-1-methyl-6-oxo-2-(tetrahydro-1,1-dioxido-2H-1,2-thiazin-2-yl)-4-pyrimidinecarboxamide] | 3 to 100 |
| Cn1c(N2CCCCS2(=O)=O)nc(C(=O)NCc2ccc(F)c(F)c2)c(O)c1=O [Compound 15, N-[(3,4-difluorophenyl)methyl]-1,6-dihydro-5-hydroxy-1-methyl-6-oxo-2-(tetrahydro-1,1-dioxido-2H-1,2-thiazin-2-yl)-4-pyrimidinecarboxamide] | 3 to 100 |
| Cn1c(N2CCCCC2CO)nc(C(=O)NCc2ccc(F)cc2)c(O)c1=O (centres unmarked) [Compound 96, 4-pyrimidineN-[(4-fluorophenyl)methyl]-1,6-dihydro-5-hydroxy-2-[2-(hydroxymethyl)-1-piperidinyl]-1-methyl-6-oxo-carboxamide] | 100 to 1000 |
| Cn1c(N2CCCCS2(=O)=O)nc(C(=O)NCc2ccc(C(F)(F)F)cc2)c(O)c1=O [Compound 32, 1,6-dihydro-5-hydroxy-1-methyl-6-oxo-2-(tetrahydro-1,1-dioxido-2H-1,2-thiazin-2-yl)-N-[[4-(trifluoromethyl)phenyl]methyl]-4-pyrimidinecarboxamide] | 100 to 1000 |
| Cc1ncnn1-c1nc(C(=O)NCc2ccc(Cl)c(Cl)c2)c(O)c(=O)n1C [Compound 62, N-[(3,4-dichlorophenyl)methyl]-1,6-dihydro-5-hydroxy-1-methyl-2-(5-methyl-1H-1,2,4-triazol-1-yl)-6-oxo-4-pyrimidinecarboxamide] | 3 to 100 |
| Cn1c(N2CCCCS2(=O)=O)nc(C(=O)NCCc2c[nH]c3ccccc23)c(O)c1=O [Compound 49, 1,6-dihydro-5-hydroxy-N-[2-(1H-indol-3-yl)ethyl]-1-methyl-6-oxo-2-(tetrahydro-1,1-dioxido-2H-1,2-thiazin-2-yl)-4-pyrimidinecarboxamide] | ≥ 1000 |
| Cn1c(N2CCCCS2(=O)=O)nc(C(=O)NCc2ccc(Cl)cc2Cl)c(O)c1=O [Compound 43, N-[(2,4-dichlorophenyl)methyl]-1,6-dihydro-5-hydroxy-1-methyl-6-oxo-2-(tetrahydro-1,1-dioxido-2H-1,2-thiazin-2-yl)-4-pyrimidinecarboxamide] | 100 to 1000 |
| Cc1cc(CNC(=O)c2nc(N3CCN(CCO)CC3)n(C)c(=O)c2O)ccc1F [Compound 68, N-[(4-fluoro-3-methylphenyl)methyl]-1,6-dihydro-5-hydroxy-2-[4-(2-hydroxyethyl)-1-piperazinyl]-1-methyl-6-oxo-4-pyrimidinecarboxamide] | 3 to 100 |
| CNc1nc(C(=O)NCc2ccc(F)cc2)c(O)c(=O)n1C [Compound 64, 5-Hydroxy-1-methyl-2-methylamino-6-oxo-1,6-dihydro-pyrimidine-4-carboxylic acid 4-fluoro-benzylamine] | 3 to 100 |
| Cn1c(N)nc(C(=O)NCc2ccc(F)cc2)c(O)c1=O [Compound 63, 2-amino-5-hydroxy-1-methyl-6-oxo-1,6-dihydro-pyrimidine-4-carboxylic acid 4-fluorobenzylamine] | 3 to 100 |
| Cc1ccc(CCNC(=O)c2nc(N3CCCCS3(=O)=O)n(C)c(=O)c2O)cc1 [Compound 40, 1,6-dihydro-5-hydroxy-1-methyl-N-[2-(4-methylphenyl)ethyl]-6-oxo-2-(tetrahydro-1,1-dioxido-2H-1,2-thiazin-2-yl)-4-pyrimidinecarboxamide] | ≥ 1000 |
| Cc1ccc(CNC(=O)c2nc(N3CCCCS3(=O)=O)n(C)c(=O)c2O)cc1 [Compound 8, 1,6-dihydro-5-hydroxy-1-methyl-N-[(4-methylphenyl)methyl]-6-oxo-2-(tetrahydro-1,1-dioxido-2H-1,2-thiazin-2-yl)-4-pyrimidinecarboxamide] | 3 to 100 |
| Cn1c(N2CCCCS2(=O)=O)nc(C(=O)NCc2ccc(F)c(C(F)(F)F)c2)c(O)c1=O [Compound 20, N-[[4-fluoro-3-(trifluoromethyl)phenyl]methyl]-1,6-dihydro-5-hydroxy-1-methyl-6-oxo-2-(tetrahydro-1,1-dioxido-2H-1,2-thiazin-2-yl)-4-pyrimidinecarboxamide] | 3 to 100 |
| CCCN1CCN(c2nc(C(=O)NCc3ccc(F)cc3)c(O)c(=O)n2C)CC1 [Compound 73, N-[(4-fluorophenyl)methyl]-1,6-dihydro-5-hydroxy-1-methyl-6-oxo-2-(4-propyl-1-piperazinyl)-4-pyrimidinecarboxamide] | 3 to 100 |
